In ChEMBL document CHEMBL1201862, “PubChem BioAssay data set” (2004):
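Method: 48-hour compound exposure of cells in 96-well plates, five concentrations, linear interpolation of endpoints. GI50: concentration for 50% inhibition of growth.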 Active and inactive are the calls of the source. No stated cut-off is given here; in the data, active = GI50 up to about 1.1 µM and inactive = higher.

Tests used:
Test in all cases: inhibition of tumour cell growth, NCI panel, 48 h
[1] = tested on: OVCAR-5
[2] = tested on: UACC-257
[3] = tested on: SK-OV-3
[4] = tested on: RPMI-8226
[5] = tested on: MOLT-4
[6] = tested on: RXF 631
[7] = tested on: A498
[8] = tested on: KM12
[9] = tested on: NCI-H23
[10] = tested on: HCT-15
[11] = tested on: M19-MEL
[12] = tested on: UO-31
[13] = tested on: IGROV-1
[14] = tested on: A549
[15] = tested on: SR
[16] = tested on: LXFL 529
[17] = tested on: 786-0
[18] = tested on: HOP-62
[19] = tested on: CCRF-CEM
[20] = tested on: Malme-3M
[21] = tested on: SNB-75
[22] = tested on: HL-60
[23] = tested on: SNB-78
[24] = tested on: TK-10
[25] = tested on: HOP-92
[26] = tested on: COLO 205
[27] = tested on: SK-MEL-28
[28] = tested on: SF-268
[29] = tested on: EKVX
[30] = tested on: OVCAR-4
[31] = tested on: NCI-H226
[32] = tested on: HCT-116
[33] = tested on: U-251
[34] = tested on: SK-MEL-2
[35] = tested on: NCI-H460
[36] = tested on: SF-539
[37] = tested on: HCC 2998
[38] = tested on: RXF 393
[39] = tested on: SNB-19
[40] = tested on: CAKI-1
[41] = tested on: UACC-62
[42] = tested on: DMS-114
[43] = tested on: DLD-1
[44] = tested on: HT-29
[45] = tested on: M14
[46] = tested on: DMS-273
[47] = tested on: SF-295
[48] = tested on: SN12C
[49] = tested on: KM-20L2
[50] = tested on: OVCAR-8
[51] = tested on: HOP-18
[52] = tested on: XF498
[53] = tested on: K562
[54] = tested on: ACHN
[55] = tested on: SW-620
[56] = tested on: SK-MEL-5
[57] = tested on: OVCAR-3
[58] = tested on: NCI-H522

Measured: GI50

Cc1[nH]c2ccccc2c1C1=NO/C(=N\O)C(c2c(C)[nH]c3ccccc23)C1 (stereo unspecified)
43 µM: [10]
inactive: [1] 50 µM | [2] 71.3 µM | [3] 49.9 µM | [4] 34.5 µM | [5] 21.4 µM | [6] 31 µM | [7] 42.8 µM | [8] 38 µM | [9] 62.1 µM | [11] 41.3 µM | [12] 26.9 µM | [13] 34.8 µM | [14] 38.6 µM | [15] 23.8 µM | [16] 35.6 µM | [17] 40.7 µM | [18] 21.7 µM | [19] 31.4 µM | [20] 53.2 µM | [21] 43.2 µM | [22] 20.5 µM | [23] 35.4 µM | [24] 54 µM | [25] 20.8 µM | [26] 19.7 µM | [27] 52.5 µM | [28] 46 µM | [29] 27.3 µM | [30] 39.1 µM | [31] 37.7 µM | [32] 28.3 µM | [33] 42.9 µM | [34] 40 µM | [35] 23.9 µM | [36] 23.6 µM | [37] 37.9 µM | [38] 23.3 µM | [39] 72.8 µM | [40] 36.1 µM | [41] 19.9 µM | [42] 36.8 µM | [43] 42.3 µM | [44] 22.7 µM | [45] 26.6 µM | [46] 35.9 µM | [47] 36.7 µM | [48] 37 µM | [49] 23.8 µM | [50] 56.5 µM | [51] 32.4 µM | [52] 53 µM | [53] 33.2 µM | [54] 28.6 µM | [55] 57.5 µM | [56] 19.9 µM | [57] 26.9 µM

COC(=O)/C(=N\NC(=S)NN)C(C(=O)C(=O)Nc1ccccc1C(N)=O)c1nc2ccccc2nc1O (stereo unspecified)
inactive: [1] > 100 µM | [2] > 100 µM | [4] > 100 µM | [5] > 100 µM | [6] > 100 µM | [8] > 100 µM | [9] 7.69 µM | [11] > 100 µM | [12] > 100 µM | [13] > 100 µM | [14] > 100 µM | [15] > 100 µM | [16] > 100 µM | [17] > 100 µM | [58] > 100 µM | [19] > 100 µM | [20] > 100 µM | [23] > 100 µM | [24] > 100 µM | [25] 43.5 µM | [26] > 100 µM | [27] > 100 µM | [28] > 100 µM | [29] > 100 µM | [30] > 100 µM | [31] > 100 µM | [32] > 100 µM | [33] > 100 µM | [34] > 100 µM | [36] > 100 µM | [37] > 100 µM | [38] > 100 µM | [39] > 100 µM | [40] > 100 µM | [41] > 100 µM | [42] > 100 µM | [45] > 100 µM | [46] > 100 µM | [47] > 100 µM | [48] > 100 µM | [49] > 100 µM | [50] > 100 µM | [51] > 100 µM | [52] > 100 µM | [53] > 100 µM | [54] > 100 µM | [55] > 100 µM | [56] > 100 µM
> 100 µM: [10]
